Measured values as given in patent EP1299350B1, “SUBSTITUTED BENZAMIDES FOR IMMUNE ENHANCEMENT AND FOR THE TREATMENT OF CANCER, INFECTION AND MANIC-DEPRESSIVE ILLNESS” (Active Biotech AB, priority 2000, dated 2002).

System: AP-1
Experiment: AP-1-driven luciferase reporter gene assay in Jurkat T cell line (Jurkat/AP-1rep), stimulated with phorbol myristate acetate and ionomycin
Assay type: cell-based
Conditions: Jurkat/AP-1rep cells stimulated for 5.5 h at 37°C with phorbol myristate acetate and ionomycin; luciferase luminescence; Figure 1
Procedure: The compounds of general formula (I) were assayed for AP-1 enhancement. The compounds of this invention were tested in assays for the modulation of stimulated activity of an AP-1-driven reporter gene in the Jurkat T cell line. The activation of this reporter gene results in luciferase production and the amounts of produced luciferase parallels the level of AP-1 activity. A high level of AP-1 activity is pivotal to e.g. high production of IL-2.
Cells from the Jurkat T cell line were transfected with an AP-1-driven luciferase gene reporter construct (Parra et al., 1997) together with a selection gene vector. Selected clones from the resulting stable AP-1 reporter gene transfectants were used in the assays for AP-1 transcription factor activity. These transfected Jurkat cells (Jurkat/AP-1rep) were grown in RPMI 1640 supplemented with glutamine, hepes, sodium pyruvate, gentamicin, 10% FCS and G418. To evaluate distinct compounds for their capacity to enhance the AP-1 activity, Jurkat/AP-1rep cells were stimulated for 5.5 h in the temperature of 37°C with phorbol myristate acetate and ionomycin in the absence and presence of test compounds. The 96 well plates containing the cell cultures were then put on ice until harvested. […] AP-1 activity was measured as luminiscence produced by luciferase substrate, which was added to the wells in conjunction with measurement.

CCN(CC)CCCNC(=O)c1ccc(NC(=O)C(C)C)cc1OC [Compound A, N-[(3-diethylamino)propyl]-4-isobutyrylamino-2-methoxybenzamide]
activity of the AP-1 driven reporter: enhance the activity of the AP-1 driven reporter in a dose dependent fashion down to µM concentrations
